Experimental data taken from patent US5959113A, “Imidazol derivatives” (Hoffmann-La Roche Inc., priority 1994, dated 1999).

Assays:
[1] = molecular target: T1, EGF-receptor tyrosine kinase (Homo sapiens, UniProt P00533); assay: Inhibition of EGF-receptor Tyrosine Kinase; assay type: biochemical; details: EGF-R from A431 cell membranes, 30 °C, 30 min, ATP 10 μM, RR-src peptide 0.75 mM; read-out: IC50 Isolated enzyme EGF-R
T1 construct: A membrane fraction from human A431 cells is used as the enzyme; endogenous in cells; host or cells: A431 cells, membrane fraction (Thom et al., Biochem. J. 168, 187 (1977))
Experimental: Inhibition of EGF-receptor Tyrosine Kinase
The activity of EGF-receptor tyrosine kinase is determined by measuring the transfer of ^32 P-labelled phosphate from ^32 P-γ-ATP (10 μM) to the substrate RR-scr peptide* (0.75 mM). A membrane fraction from human A431 cells is used as the enzyme. It is isolated according to Thom et al., Biochem. J. 168, 187 (1977) and stored at -75° C. (4-6 mg protein/ml). The compounds are tested in 10% DMSO in a concentration of 0.001-100 μM. The incubation is carried out at 30° C. for a period of 30 minutes in Tris buffer (25 mM, pH 7.4) which contains magnesium acetate (30 mM), sodium vanadate (0.5 mM), 0.5% BSA and 0.05% Triton X-100. The membranes are pre-incubated with 2 μM of EGF at 4° C. for 90 minutes. The test is started by adding the enzyme (2 μg of membrane protein) and terminated by adding ice-cold KH2 PO4 (1M, pH 3.0). After centrifugation the labelled peptide is separated from excess ATP in the supernatant by reversed phase HPLC. The peptide fraction is collected and the radioactivity is measured in a standard β-counter or on-line with a radiometer (Berthold). The inibitory activity of the test compound is expressed as the mikromolar concentration which is required for 50% inhibition (IC50 [μM]).
*RR-src peptide=[Arg-Arg-Leu-Ile-Glu-Asp-Ala-Glu-Tyr-Ala-Ala-Arg-Gly]
(§1) The inhibition of selected protein kinases in vitro and the inhibition of cell proliferation in HaCaT-cells by these compounds are set forth in the following Table.

p56^Ick tyrosine kinase = molecular target: T2, p56^Ick tyrosine kinase (Homo sapiens, UniProt P06239); assay: Inhibition of p56^Ick tyrosine kinase; assay type: biochemical; details: human recombinant p56lck, 30 °C, 30 min, ATP 10 μM, RR-src peptide 0.75 mM; read-out: IC50 Isolated enzyme p56^lck
T2 construct: made in house; host or cells: E. coli
Experimental: Inhibition of p56^Ick tyrosine kinase
The activity of p56^Ick tyrosine kinase is determined by measuring the transfer of ^32 P-labelled phosphate from ^32 P-γ-ATP (10 μM) to the substrate RR-src peptide (0.75 mM). Human recombinant p56^Ick (expressed in E. coli) is used as the enzyme.
It is purified from the soluble fraction by means of a monoclonal antibody column and stored at -75° C. The compounds are tested in 10% DMSO in a concentration of 0.001-100 μM, The incubation is carried out at 30° C. for a period of 30 minutes in HEPES buffer (50 mM, pH 6.9) which contains manganese chloride (11 mM) and 0.5% BSA. The test is started by adding the enzyme and terminated by adding ice-cold KH2 PO4 (1M, pH 3.0). After centrifugation the radiolabelled peptide is separated from excess ATP in the supernatant by reversed phase HPLC. The peptide fraction is collected and the radioactivity is determined in a standard β- counter or on-line with a radiometer (Berthold). The inhibitory activity of the test compound is expressed as the micromolar concentration which is required for 50% inhibition (IC50 [μM]).
as §1

protein kinase C (PKC) = assay: Inhibition of protein kinase C (PKC); assay type: biochemical; details: partially purified PKC from hog brain, histone H1, ATP 10 μM, 2 min at 32 °C; read-out: IC50 Isolated enzyme PCK
Experimental: Inhibition of protein kinase C (PKC)
The activity of PKC is measured by measuring the transfer of ^32 P-labelled phosphate from ^32 P-γ-ATP (10 μM) to the substrate histone H1 (200 μg/ml) using partially purified PKC from hog brain (DEAE chromatography according to U. Kikkawa et al., Methods Enzymol. 99, 288, 1983). PKC is activated by phospholipid vesicle prepared by sonicating a mixture of 0.05 ml of phosphatidylserine (10 mg/ml) and 0.005 ml of diolein (10 mg/ml) in 5 ml of Tris HCl buffer (20 mM, pH 7.4). The compounds are tested in DMSO/buffer at a concentration of 0.001-100 μM. The test is started by adding the enzyme, takes 2 minutes at 32° C. and is terminated by adding 20% trichloroacetic acid (containing 1% SDS and 1% sodium pyrophosphate). The precipitated protein with the labelled histone is separated from excess ATP by filtration over a nitrocellulose membrane filter. The radioactivity on the filter is measured in a scintillation counter. The inhibitory activity of the test compound is expressed as the micromolar concentration which is required for 50% inhibition (IC50 [μM]).
as §1

[2] = molecular target: cAMP-dependent protein kinase (PKA); assay: Inhibition of cAMP-dependent protein kinase (PKA); assay type: biochemical; details: partially purified PKA from hog brain, histone H1, ATP 10 μM, 2 min at 32 °C; read-out: IC50 Isolated enzyme PKA
Experimental: Inhibition of cAMP-dependent protein kinase (PKA)
The activity of PKA is measured by measuring the transfer of ^32 P-labelled phosphate from ^32 P-γ-ATP (10 μM) to the substrate histone H1 (333 μg/ml) using partially purified PKA from hog brain (DEAE chromatography according to U. Kikkawa et al., Methods Enzymol. 99, 288, 1983). PKA is activated by 2 μM of cAMP in Tris HCl buffer (20 mM, pH 7.4). The compounds are tested in DMSO/buffer at a concentration of 0.001-100 μM. The test is started by adding the enzyme, takes 2 minutes at 32° C. and is terminated by adding 20% trichloroacetic acid (containing 1% SDS and 1% sodium pyrophosphate). The precipitated protein, which contains the radiolabelled histone, is separated from excess ATP by filtration through a nitrocellulose membrane filter. The radioactivity on the filter is determined in a scintillation counter. The inhibitory activity of the test compounds is expressed as the micromolar concentration which is required for 50% inhibition (IC50 [μM]).
as §1

HaCaT cells = assay: Inhibition of HaCaT cell proliferation; assay type: cell-based; details: Homo sapiens, [3H]-thymidine incorporation, 48 h at 37 °C
Experimental: Inhibition of HaCaT cell proliferation
HaCaT is a spontaneous immortalized human keratinoycte cell line (Boukamp et al. 1988) which has been used many times as a model system for hyperproliferative keratinoyctes. The incorporation of [^3 H]-thymidine was used to quantify the growing cells in the S phase of the cell cycle. The cells were cultivated with a 3:1 mixture of DMEM/F12 medium which had been supplemented with 5% FCS, EGF (10 μg/l), hydrocortisone (400 μg/l), cholera toxin (8.5 μg/l), insulin (5 μg/l), L-glutamine (2 mM) and penicillin/streptomycin. 200 μl of medium were placed in microtitre plates such that each sample contained 5000 cells. The test compounds were added in serial dilutions in the range of 1×10^-8 M to […] at the beginning of the cultivation. The cells were incubated at 37° C. for 48 hours. For the last 6 hours [^3 H]-thymidine was added ([…]). After digesting the cells with trypsin the amount of incorporated radioactivity was quantified with a liquid scintillation counter.
as §1

mouse hair follicles = assay: Stimulation of cell proliferation in cultured mouse hair follicles; assay type: cell-based; details: for EC50: read-out: concentration which resulted in a half-maximum stimulation of the DNA synthesis (EC50 value)
Experimental: Stimulation of cell proliferation in cultured mouse hair follicles
Mouse hair follicles are isolated and cultured according to the method described by Buhl et al., J. Invest. Dermatol. 92, 315 (1989). Whisker parts are removed from CD-1 mice aged 4 days and the hair follicles are carefully separated from surrounding tissue under the microscope. Hair follicles are cultured in M199 medium which contains 20% FBS and the cell proliferation is determined from the incorporation of [^3 H]-thymidinein DNA. The test compounds are dissolved in DMSO and added in serial dilutions in the range of 1×10^-8 to 1×10^-6 M at the beginning of the cultivation. After 1 day 5 μCi/ml of [^3 H]-thymidine are added to the culture medium and the follicles are incubated for a further 3 days. The hair follicles are then washed with phosphate-buffered saline solution in order to remove non-incorporated radioactivity and the DNA is solubilized by incubation with alkali overnight. The radioactivity incorporated into the follicular DNA is then measured using a liquid scintillation counter.

[3] = [3H]-thymidine incorporation, CD-1 mouse whisker follicles

T1 sequence (P00533 25-1210): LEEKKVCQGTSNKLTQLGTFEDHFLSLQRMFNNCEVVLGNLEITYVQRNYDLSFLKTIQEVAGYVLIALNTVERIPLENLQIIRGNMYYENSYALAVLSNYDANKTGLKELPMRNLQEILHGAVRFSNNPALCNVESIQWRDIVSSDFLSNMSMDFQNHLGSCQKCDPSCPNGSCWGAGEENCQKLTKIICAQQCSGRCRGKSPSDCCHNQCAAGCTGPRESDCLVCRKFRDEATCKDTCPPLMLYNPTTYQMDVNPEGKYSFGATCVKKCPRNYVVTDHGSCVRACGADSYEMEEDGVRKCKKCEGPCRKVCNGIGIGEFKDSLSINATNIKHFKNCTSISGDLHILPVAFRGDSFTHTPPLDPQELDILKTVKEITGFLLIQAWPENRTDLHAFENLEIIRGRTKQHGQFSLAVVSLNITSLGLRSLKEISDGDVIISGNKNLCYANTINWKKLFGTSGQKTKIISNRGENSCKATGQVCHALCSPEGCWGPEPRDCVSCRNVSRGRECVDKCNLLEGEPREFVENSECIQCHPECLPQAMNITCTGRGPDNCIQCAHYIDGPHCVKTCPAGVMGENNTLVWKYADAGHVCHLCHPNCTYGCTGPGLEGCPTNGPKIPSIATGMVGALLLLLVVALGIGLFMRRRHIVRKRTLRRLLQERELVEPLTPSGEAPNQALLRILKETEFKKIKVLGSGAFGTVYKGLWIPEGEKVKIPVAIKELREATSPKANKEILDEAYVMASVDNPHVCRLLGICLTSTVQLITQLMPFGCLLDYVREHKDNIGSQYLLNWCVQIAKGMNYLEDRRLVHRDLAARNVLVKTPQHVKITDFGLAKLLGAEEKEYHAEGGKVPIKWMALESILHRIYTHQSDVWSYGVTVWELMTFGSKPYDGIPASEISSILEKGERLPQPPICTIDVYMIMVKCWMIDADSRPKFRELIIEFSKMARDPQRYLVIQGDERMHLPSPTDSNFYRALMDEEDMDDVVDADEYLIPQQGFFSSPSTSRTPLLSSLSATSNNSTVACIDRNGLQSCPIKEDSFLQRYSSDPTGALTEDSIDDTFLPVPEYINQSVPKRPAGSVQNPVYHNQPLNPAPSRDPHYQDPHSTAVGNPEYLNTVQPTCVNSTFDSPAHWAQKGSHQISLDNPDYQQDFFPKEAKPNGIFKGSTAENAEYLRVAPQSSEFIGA
T2 sequence (P06239 whole entry): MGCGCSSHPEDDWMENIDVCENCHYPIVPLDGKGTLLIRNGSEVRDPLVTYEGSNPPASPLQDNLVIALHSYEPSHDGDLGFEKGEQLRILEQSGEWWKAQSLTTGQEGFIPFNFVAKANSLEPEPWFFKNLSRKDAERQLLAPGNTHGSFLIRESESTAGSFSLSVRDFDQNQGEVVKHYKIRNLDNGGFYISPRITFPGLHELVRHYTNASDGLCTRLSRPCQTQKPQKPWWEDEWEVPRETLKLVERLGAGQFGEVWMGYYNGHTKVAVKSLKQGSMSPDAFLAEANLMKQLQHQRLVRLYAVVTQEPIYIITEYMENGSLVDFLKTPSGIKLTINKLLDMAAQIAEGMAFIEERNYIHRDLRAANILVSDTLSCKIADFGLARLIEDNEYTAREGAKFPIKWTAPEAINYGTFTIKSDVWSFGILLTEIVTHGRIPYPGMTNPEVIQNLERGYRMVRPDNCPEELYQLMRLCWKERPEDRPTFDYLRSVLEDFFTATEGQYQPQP

SMILES | IC50 [1] [nM] | IC50 (p56^Ick tyrosine kinase) [nM] | IC50 (protein kinase C (PKC)) [nM] | IC50 [2] [nM] | IC50 (HaCaT cells) [nM] | activity at 0.3 µM (mouse hair follicles; 96 h, at 0.3 μM, [3H]-thymidine incorporation, CD-1 mouse whisker follicles, read-out: maximum DNA synthesis value (compared with controls)) [%] | EC50 (mouse hair follicles; [3]) [nM] | activity in this culture system compared with known hypotrichotic agents (mouse hair follicles; mouse hair follicle culture) | stimulation of hair follicle DNA synthesis (compared with controls) (mouse hair follicles; concentration not given, comparison agent, 5760 min) [%]
Cc1cc(C)c(-c2nc(-c3ccncc3)c(-c3ccc(Cl)cc3)[nH]2)c(C)c1 [Example 1, 4-[5-(4-chlorophenyl)-2-(2,4,6-trimethyphenyl)imidazol-4-yl]pyridine] | 340 | 2200 | > 100000 | 6300 | 2000 | 211 ± 17 | 100 | exceeded that of known hypotrichotic agents | 
Cc1cccc(-c2[nH]c(-c3c(C)cc(C)cc3C)nc2-c2ccncc2)c1 [Example 4, 4-[5-(3-methylphenyl)-2-(2,4,6-trimethylphenyl)imidazol-4-yl]pyridine] | 800 | 6000 | > 100000 | 190000 | 2000 |  |  |  | 
CC(C)c1cccc(C(C)C)c1-c1nc(-c2ccncc2)c(-c2ccc(Cl)cc2)[nH]1 [Example 7, 4-[5-(4-chlorophenyl)-2-(2,6-diisopropylphenyl)imidazol-4-yl]pyridine] | 130 | 3100 | 100000 | 470 | 3500 |  |  |  | 
COC(=O)c1c(C)cc(C)c(-c2nc(-c3ccncc3)c(-c3ccc(Cl)cc3)[nH]2)c1C [Example 9, methyl 3-[5-(4-chlorophenyl)-4-pyridin-4-yl-imidazol-2-yl]2,4,6-trimethylbenzoate] | 140 | 3800 | 80000 | 6000 | 230 |  |  |  | 
Cc1cc(C)c(-c2nc(-c3ccncc3)c(-c3ccc(Cl)cc3)[nH]2)c(C)c1CN1CCOCC1 [Example 11, 4-[3-[5-(4-chlorophenyl)-4-pyridin-4-yl-imidazol-2-yl]-2,4,6,-trimethylbenzyl]morpholine] | 260 | 5100 | > 100000 | 43000 | 100 |  |  |  | 
Cc1cc(C)c(-c2nc(-c3ccncc3)c(-c3ccc(Cl)cc3)[nH]2)c(C)c1CN(C)C [Example 12, [3-[5-(4-chlorophenyl)-4-pyridin-4-yl-imidazol-2-yl]-2,4,6,-trimethylbenzyl]dimethylamine] | 50 | 1650 | 7000 | 5000 | 570 |  |  |  | 
Cc1cc(C)c(-c2nc(-c3ccncc3)c(-c3ccc(Cl)cc3)[nH]2)c(C)c1CN1CCN(C)CC1 [Example 13, 1-[3-[5-(4-chlorophenyl)-4-pyridin-4-yl-imidazol-2-yl]-2,4,6,-trimethylbenzyl]-4-methylpiperazine] | 50 | 1800 | 37000 | 1500 | 100 |  |  |  | 
Cc1cc(C)c([N+](=O)[O-])c(C)c1-c1nc(-c2ccncc2)c(-c2ccc(Cl)cc2)[nH]1 [Example 15, 4-[5-(4-chlorophenyl)-2-(2,4,6-trimethyl-3-nitrophenyl)-imidazol-4-yl]pyridine] | 780 | 4950 |  |  | 670 |  |  |  | 
Cc1cc(C)c(-c2nc(-c3ccncc3)c(-c3ccc(Cl)cc3)[nH]2)c(C)c1O [Example 16, 3-[5-(4-chlorophenyl)-4-pyridin-4-yl-imidazol-2-yl]-2,4,6,-trimethylphenol] | 310 | 2200 |  |  | 800 |  |  |  | 
Nc1cccc(Cl)c1-c1nc(-c2ccncc2)c(-c2ccc(Cl)cc2)[nH]1 [Example 18, 3-chloro-2-[5-(4-chlorophenyl)-4-pyridin-4-yl-imidazol-2-yl]phenylamine] | 290 | 14000 | 23000 | 1800 | 2000 |  |  |  | 
Nc1cc(N2CCCCC2)nc(N)[n+]1[O-] [minoxidil, reference compound] |  |  |  |  |  |  | 200000 |  | 160±15
